Patent EP1359152B1, “Diazabicyclic derivatives as nicotinic acetylcholine receptor ligands” (ABBOTT LABORATORIES, priority 1999, dated 2000)
Where a name gives a salt, the structure may show the parent alone.

Each compound was assayed on mice (assay: Mouse hot plate paradigm (analgesic effect, latency until tenth jump)). Settings: ip, 0.5 h, minimally effective dose among doses tested, intraperitoneal, dosed 30 minutes prior to testing, hot plate 55 °C, cut-off 180 seconds, increase in tenth jump latency relative to control, read-out: (MED).
Type: in vivo
Protocol: An in vivo protocol was utilized to determine the effectiveness of nicotinic acetylcholine receptor ligands as analgesic agents in the mouse hot plate paradigm.
Separate groups of mice, (n=8/group) were utilized for each dose group. All drugs were administered by the intraperitoneal route of administration. Test drugs were dissolved in water to make a 6.2 mM stock solution. Animals were dosed with this solution (10 mL/kg body weight) for a 62 micromol/kg dose. Lower doses were administered similarly, following serial dilution of the stock solution in half-log increments. Animals were dosed 30 minutes prior to testing in the hot plate. The hotplate utilized was an automated analgesia monitor (Model #AHP16AN, Omnitech Electronics, Inc. of Columbus, Ohio). The temperature of the hot plate was maintained at 55 °C and a cut-off time of 180 seconds was utilized. Latency until the tenth jump was recorded as the dependent measure. An increase in the tenth jump latency relative to the control was considered an effect.

Structure (SMILES) | minimal effective dose
Clc1ccc(N2C[C@@H]3C[C@H]2CN3)cn1 [Example 1, (1S,4S)-2-(6-chloro-3-pyridinyl)-2,5-diazabicyclo[2,2,1]heptane 4-methylbenzenesulfonate] | 6.2 µmol/kg
Cc1cc(N2C[C@@H]3C[C@H]2CN3)nnc1Cl [Example 4, (1S,4S)-2-(6-chloro-5-methyl-3-pyridazinyl)-2,5-diazabicyclo[2,2,1]heptane bis(4-methylbenzenesulfonate)] | 62 µmol/kg
Clc1ccc(N2C[C@H]3C[C@@H]2CN3)cn1 [Example 15, (1R,4R)-2-(6-chloro-3-pyridinyl)-2,5-diazabicyclo[2.2.1]heptane 4-methylbenzenesulfonate] | 0.62 µmol/kg
Clc1ccc(N2C[C@H]3C[C@@H]2CN3)nn1 [Example 16, (1R,4R)-2-(6-chloro-3-pyridazinyl)-2,5-diazabicyclo[2.2.1]heptane bis(4-methylbenzenesulfonate)] | 6.2 µmol/kg
c1cncc(CN2C[C@H]3C[C@@H]2CN3)c1 [Example 20, (1R,4R)-2-(3-pyridinylmethyl)-2,5-diazabicyclo[2.2.1]heptane trihydrobromide] | 62 µmol/kg
Oc1cncc(N2C[C@@H]3C[C@H]2CN3)c1 [Example 22, (1S,4S)-2[5-hydroxy-3-pyridinyl]-2,5-diazabicyclo[2.2.1]heptane 4-methylbenzenesulfonate] | 19 µmol/kg
Cc1ccc(N2C[C@@H]3C[C@H]2CN3)cn1 [Example 23, (1S,4S)-2-(6-methyl-3-pyridinyl)-2,5-diazabicyclo[2.2.1]heptane 4-methylbenzenesulfonate] | 62 µmol/kg
c1cncc(N2C[C@H]3C[C@@H]2CN3)c1 [Example 24, (1R,4R)-2-(3-pyridinyl)-2,5-diazabicyclo[2.2.1]heptane 4-methylbenzenesulfonate] | 6.2 µmol/kg

What follows are compounds tested against T1, neuronal nicotinic acetylcholine receptors (Rattus norvegicus, UniProt P09483+P12390) (assay: [3H]-cytisine binding to neuronal nicotinic acetylcholine receptors, crude synaptic membranes from whole rat brain). Settings: not given.
T1 construct: crude synaptic membrane preparations from whole rat brain; from tissue; host or cells: whole rat brain, crude synaptic membranes
T1 sequence (P09483 31-630): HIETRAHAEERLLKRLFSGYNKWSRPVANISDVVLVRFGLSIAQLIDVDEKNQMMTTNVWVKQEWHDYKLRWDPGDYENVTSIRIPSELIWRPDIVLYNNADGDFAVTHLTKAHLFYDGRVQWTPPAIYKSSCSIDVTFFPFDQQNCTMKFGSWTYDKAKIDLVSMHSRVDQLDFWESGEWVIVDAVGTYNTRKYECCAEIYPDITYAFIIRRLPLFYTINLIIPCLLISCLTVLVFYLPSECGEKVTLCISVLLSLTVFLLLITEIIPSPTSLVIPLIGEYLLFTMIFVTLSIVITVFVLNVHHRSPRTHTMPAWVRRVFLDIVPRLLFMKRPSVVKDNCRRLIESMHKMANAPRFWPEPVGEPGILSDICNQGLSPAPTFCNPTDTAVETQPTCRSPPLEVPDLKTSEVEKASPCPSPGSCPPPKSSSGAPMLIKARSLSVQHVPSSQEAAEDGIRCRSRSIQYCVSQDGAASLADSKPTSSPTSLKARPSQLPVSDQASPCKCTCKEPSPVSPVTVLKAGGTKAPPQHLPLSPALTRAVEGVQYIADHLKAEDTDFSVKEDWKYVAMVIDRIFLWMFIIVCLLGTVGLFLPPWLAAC
T1 sequence (P12390 25-500): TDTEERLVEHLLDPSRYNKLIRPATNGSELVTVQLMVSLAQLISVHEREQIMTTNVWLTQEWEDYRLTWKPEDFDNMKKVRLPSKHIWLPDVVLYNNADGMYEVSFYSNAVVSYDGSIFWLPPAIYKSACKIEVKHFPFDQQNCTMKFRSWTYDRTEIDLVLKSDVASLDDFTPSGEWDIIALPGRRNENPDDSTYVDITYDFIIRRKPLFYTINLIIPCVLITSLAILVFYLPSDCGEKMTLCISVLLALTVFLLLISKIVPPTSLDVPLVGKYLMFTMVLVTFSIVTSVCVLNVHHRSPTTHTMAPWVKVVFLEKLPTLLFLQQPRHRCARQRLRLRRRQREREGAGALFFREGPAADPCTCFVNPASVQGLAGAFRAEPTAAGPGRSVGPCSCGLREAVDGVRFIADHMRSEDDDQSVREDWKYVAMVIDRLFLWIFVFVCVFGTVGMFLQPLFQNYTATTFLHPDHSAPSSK
Protocol: The In Vitro protocols for determination of nicotinic acetylcholine channel receptor binding potencies of ligands were determined as follows.
Washed membranes were stored at-80 °C prior to use. Frozen aliquots were slowly thawed and resuspended in 20 volumes of buffer (containing: 120 mM NaCl, 5 mM KCI, 2 mM MgCl2, 2 mM CaCl2 and 50 mM Tris-Cl, pH 7.4 @4 °C). After centrifuging at 20,000x g for 15 minutes, the pellets were resuspended in 30 volumes of buffer.
The test compounds were dissolved in water to make 10 mM stock solutions. Each solution was then diluted (1:100) with buffer (as above) and further taken through seven serial log dilutions to produce test solutions from 10^-5 to 10^-11 M.
Samples were incubated for 60 minutes at 4 °C, then rapidly filtered through Whatman GF/B filters presoaked in 0.5% polyethyleneimine using 3 x 4 mL of ice-cold buffer. The filters are counted in 4 mL of Ecolume® (ICN). Nonspecific binding was determined in the presence of 10 µM (-)-nicotine and values were expressed as a percentage of total binding. IC50 values were determined with the RS-1 (BBN) nonlinear least squares curve-fitting program and IC50 values were converted to Ki values using the Cheng and Prusoff correction (Ki=IC50/(1+[ligand]/Kd of ligand).

Structure (SMILES) | Ki
Clc1ccc(N2C[C@@H]3C[C@H]2CN3)cn1 [Example 1, (1S,4S)-2-(6-chloro-3-pyridinyl)-2,5-diazabicyclo[2,2,1]heptane 4-methylbenzenesulfonate] | 0.041 nM
Nc1ccc(N2C[C@@H]3C[C@H]2CN3)cn1 [Example 3, (1S,4S)-2-(6-amino-3-pyridinyl)-2,5-diazabicyclo[2.2.1]heptane trihydrochloride] | 20 nM
Cc1cc(N2C[C@@H]3C[C@H]2CN3)nnc1Cl [Example 4, (1S,4S)-2-(6-chloro-5-methyl-3-pyridazinyl)-2,5-diazabicyclo[2,2,1]heptane bis(4-methylbenzenesulfonate)] | 3.8 nM
Cc1cc(N2C[C@@H]3C[C@H]2CN3C)nnc1Cl [Example 6, (1S,4S)-2-(6-chloro-5-methyl-3-pyridazinyl)-5-methyl-2,5-diazabicyclo[2.2.1]heptane bis(4-methylbenzenesulfonate)] | 22 nM
Clc1nnc(N2C[C@@H]3C[C@H]2CN3)c2ccccc12 [Example 7, (1S,4S)-2-(4-chloro-1-phthalazinyl)-2,5-diazabicyclo[2.2.1]heptane bis(4-methylbenzenesulfonate)] | 1900 nM
CN1C[C@@H]2C[C@H]1CN2c1nnc(Cl)c2ccccc12 [Example 8, (1S,4S)-2-(4-chloro-1-phthalazinyl)-5-methyl-2,5-diazabicyclo[2.2.1]heptane bis(4-methylbenzenesulfonate)] | 2600 nM
COC(=O)c1cc(N2C[C@@H]3C[C@H]2CN3)nnc1Cl [Example 9, (1S,4S)-2-(6-chloro-5-methoxycarbonyl-3-pyridazinyl)-2,5-diazabicyclo[2.2.1]heptane bis(4-methylbenzenesulfonate)] | > 10000 nM
O=[N+]([O-])c1ccc(N2CC3CCC(C2)N3)cn1 [Example 10, 3-(6-nitro-3-pyrdinyl)-3,8-diazabicyclo[3.2.1]octane dihydrochloride] | 37 nM
Nc1ccc(N2CC3CCC(C2)N3)cn1 [Example 11, 3-(6-amino-3-pyridinyl)-3,8-diazabicyclo[3.2.1]octane trihydrochloride] | 37 nM
Clc1ccc(N2CC3CCC(C2)N3)cn1 [Example 12, 3-(6-chloro-3-pyridinyl)-3,8-diazabicyclo[3.2.1]octane dihydrochloride] | 93 nM
c1cncc(N2CC3CCC(C2)N3)c1 [Example 13, 3-(3-pyridinyl)-3,8-diazabicyclo[3.2.1]octane dihydrochloride] | 0.41 nM
c1cnnc(N2CC3CCC(C2)N3)c1 [Example 14, 3-(3-pyridazinyl)-3,8-diazabicyclo[3.2.1]octane dihydrochloride] | 11 nM
Clc1ccc(N2C[C@H]3C[C@@H]2CN3)cn1 [Example 15, (1R,4R)-2-(6-chloro-3-pyridinyl)-2,5-diazabicyclo[2.2.1]heptane 4-methylbenzenesulfonate] | 0.01 nM
c1cncc(N2C[C@@H]3C[C@H]2CN3)c1 [Example 17, (1S,4S)-2-(3-pyridinyl)-2,5-diazabicyclo[2.2.1]heptane 4-methylbenzenesulfonate] | 0.063 nM
Clc1ccc(N2C[C@@H]3C[C@H]2CN3)nc1 [Example 18, (1S,4S)-2-(5-chloro-2-pyridinyl)-2,5-diazabicyclo[2.2.1]heptane dihydrochloride, reference compound] | 400 nM
c1cncc(CN2C[C@H]3C[C@@H]2CN3)c1 [Example 20, (1R,4R)-2-(3-pyridinylmethyl)-2,5-diazabicyclo[2.2.1]heptane trihydrobromide] | 52 nM
c1ccc(COc2cncc(N3C[C@@H]4C[C@H]3CN4)c2)cc1 [Example 21, (1S,4S)-2-[5-(benzyloxy)-3-pyridinyl]-2,5-diazabicyclo[2.2.1]heptane 4-methylbenzenesulfonate] | 0.33 nM

Structure (SMILES) | Ki
Oc1cncc(N2C[C@@H]3C[C@H]2CN3)c1 [Example 22, (1S,4S)-2[5-hydroxy-3-pyridinyl]-2,5-diazabicyclo[2.2.1]heptane 4-methylbenzenesulfonate] | 4.1 nM
Cc1ccc(N2C[C@@H]3C[C@H]2CN3)cn1 [Example 23, (1S,4S)-2-(6-methyl-3-pyridinyl)-2,5-diazabicyclo[2.2.1]heptane 4-methylbenzenesulfonate] | 1.6 nM
c1cncc(N2C[C@H]3C[C@@H]2CN3)c1 [Example 24, (1R,4R)-2-(3-pyridinyl)-2,5-diazabicyclo[2.2.1]heptane 4-methylbenzenesulfonate] | 0.012 nM
c1cnnc(N2C[C@@H]3C[C@H]2CN3)c1 [Example 29, (1S,4S)-2-(3-pyridazinyl)-2,5-diazabicyclo[2.2.1]heptane 4-methylbenzenesulfonate] | 37 nM
N#Cc1cncc(N2C[C@@H]3C[C@H]2CN3)c1 [Example 32, (1S,4S)-2-(5-cyano-3-pyridinyl)-2,5-diazabicyclo[2.2.1]heptane 4-methylbenzenesulfonate] | 1.6 nM
NCc1cncc(N2C[C@@H]3C[C@H]2CN3)c1 [Example 34, (1S,4S)-2-(5-aminomethyl-3-pyridinyl)-2,5-diazabicyclo[2.2.1]heptane trihydrochloride] | 140 nM
COc1cncc(N2C[C@@H]3C[C@H]2CN3)c1 [Example 43, (1S,4S)-2-(5-methoxy-3-pyridinyl)-2,5-diazabicyclo[2.2.1]heptane bis(4-methylbenzenesulfonate)] | 0.57 nM
Oc1cc(N2C[C@@H]3C[C@H]2CN3)cnc1Cl [Example 45, (1S,4S)-2-(6-chloro-5-hydroxy-3-pyridinyl)-2,5-diazabicyclo[2.2.1]heptane 4-methylbenzenesulfonate] | 1.6 nM
Clc1ccc(N2CC3CC2CCN3)cn1 (centres unmarked) [Example 49, 6-(6-chloro-3-pyridinyl)-2,6-diazabicyclo[3.2.1]octane bis(4-methylbenzenesulfonate)] | 2.7 nM
COc1cc(N2C[C@H]3C[C@@H]2CN3)cnc1Cl [Example 51, (1R,4R)-2-(6-chloro-5-methoxy-3-pyridinyl)-2,5-diazabicyclo[2.2.1]heptane 4-methylbenzenesulfonate] | 0.1 nM
c1ncc(N2C[C@@H]3C[C@H]2CN3)cn1 [Example 52, (1S,4S)-2-(5-pyrimidinyl)-2,5-diazabicyclo[2.2.1]heptane 4-methylbenzenesulfonate] | 1 nM
c1ccc2ncc(N3C[C@@H]4C[C@H]3CN4)cc2c1 [Example 53, (1S,4S)-2-(3-quinolinyl)-2,5-diazabicyclo[2.2.1]heptane acetate] | 17 nM
Cc1cc(N2C[C@@H]3C[C@H]2CN3)sn1 [Example 54, (1S,4S)-2-(3-methyl-5-isothiazolyl)-2.5-diazabicyclo[2.2.1]heptane acetate] | 5 nM
c1cnc2cc(N3C[C@H]4C[C@@H]3CN4)sc2c1 [Example 55, (1R,4R)-2-(thieno[3,2-b]pyridin-2-yl)-2,5-diazabicyclo[2.2.1]heptane acetate] | 0.84 nM
Clc1ccc(N2C3CCNCC2CC3)cn1 (centres unmarked) [Example 56, 9-(6-chloro-3-pyridinyl)-3,9-diazabicyclo[4.2.1]nonane fumarate] | 0.21 nM
c1cncc(N2CC3CNCC2C3)c1 (centres unmarked) [Example 59, 6-(3-pyridinyl)-3,6-diazabicyclo[3.2.1]octane] | 2.2 nM

Same assay, conditions: [3H]-CYT 1.25 nM, 60 minutes at 4 °C, whole rat brain membranes; Ki from IC50 by Cheng and Prusoff correction; read-out: Average Ki

Structure (SMILES) | Ki
O=[N+]([O-])c1ccc(N2CC3CC2CN3)cn1 [Example 28, (1S,4S)-2-(6-nitro-3-pyridinyl)-2.5-diazabicyclo[2.2.1]heptane] | 109 nM
c1cncc(N2CC3CCC2CN3)c1 (centres unmarked) [Example 42, 2-(3-pyridinyl)-2.5-diazabicyclo[2.2.2]octane dihydrochloride] | 0.02 nM
NC(=O)c1cncc(N2CC3CC2CN3)c1 [Example 50, (1R,4R)-2-(5-aminocarbonyl-3-pyridinyl)-2.5-diazabicvclo[2.2.1]heptane bis(4-methylbenzenesulfonate)] | 0.83 nM
